Data from PubChem BioAssay (NCI).
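These data come from cells grown in 96-well plates and exposed to compound for 48 hours at five concentrations. At the GI50, growth is halved. TGI denotes the concentration required for complete inhibition of growth.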

Columns and labels:
Assay in all cases: inhibition of tumour cell growth, NCI panel, 48 h
IGROV1 ovarian = tested on: IGROV1 ovarian
CAKI-1 renal = tested on: CAKI-1 renal
UACC-257 melanoma = tested on: UACC-257 melanoma
OVCAR-4 ovarian = tested on: OVCAR-4 ovarian
SK-MEL-2 melanoma = tested on: SK-MEL-2 melanoma
CCRF-CEM leukemia = tested on: CCRF-CEM leukemia
RPMI-8226 leukemia = tested on: RPMI-8226 leukemia
NCI-H522 lung = tested on: NCI-H522 lung
MOLT-4 leukemia = tested on: MOLT-4 leukemia
SNB-75 CNS = tested on: SNB-75 CNS
MALME-3M melanoma = tested on: MALME-3M melanoma
HCC-2998 colon = tested on: HCC-2998 colon
SF-268 CNS = tested on: SF-268 CNS
786-0 renal = tested on: 786-0 renal
A498 renal = tested on: A498 renal
SF-295 CNS = tested on: SF-295 CNS
SNB-19 CNS = tested on: SNB-19 CNS
HOP-62 NSCLC = tested on: HOP-62 NSCLC
M19-MEL melanoma = tested on: M19-MEL melanoma
HCT-116 colon = tested on: HCT-116 colon
KM12 colon = tested on: KM12 colon
EKVX NSCLC = tested on: EKVX NSCLC
NCI-H226 lung = tested on: NCI-H226 lung
OVCAR-5 ovarian = tested on: OVCAR-5 ovarian
K-562 leukemia = tested on: K-562 leukemia

Question: Which results are given for `CC(=O)[CH-]C(=O)c1ccccc1.CC(=O)[CH-]C(=O)c1ccccc1.Cl.[O-]CCc1ccccn1.[O-]CCc1ccccn1.[Ti+4]`?
Answer: GI50 (IGROV1 ovarian): 27.2 µM; TGI (IGROV1 ovarian): 75.3 µM; GI50 (CAKI-1 renal): 44.1 µM; TGI (CAKI-1 renal): > 100 µM; GI50 (UACC-257 melanoma): 28.3 µM; TGI (UACC-257 melanoma): > 100 µM; GI50 (OVCAR-4 ovarian): 41.4 µM; TGI (OVCAR-4 ovarian): > 100 µM; GI50 (SK-MEL-2 melanoma): 19.2 µM; TGI (SK-MEL-2 melanoma): 38.9 µM; GI50 (CCRF-CEM leukemia): 15.9 µM; TGI (CCRF-CEM leukemia): > 100 µM; GI50 (RPMI-8226 leukemia): 15.8 µM; TGI (RPMI-8226 leukemia): 58.4 µM; GI50 (NCI-H522 lung): 27.8 µM; TGI (NCI-H522 lung): 70.6 µM; GI50 (MOLT-4 leukemia): 13.3 µM; TGI (MOLT-4 leukemia): 49.3 µM; GI50 (SNB-75 CNS): 23.9 µM; TGI (SNB-75 CNS): 89.2 µM; GI50 (MALME-3M melanoma): 18.7 µM; TGI (MALME-3M melanoma): 44.1 µM; GI50 (HCC-2998 colon): 26.9 µM; TGI (HCC-2998 colon): 83.6 µM; GI50 (SF-268 CNS): 25.8 µM; TGI (SF-268 CNS): 75.4 µM; GI50 (786-0 renal): 21.2 µM; TGI (786-0 renal): 57 µM; GI50 (A498 renal): 28.8 µM; TGI (A498 renal): 75.1 µM; GI50 (SF-295 CNS): 25.6 µM; TGI (SF-295 CNS): > 100 µM; GI50 (SNB-19 CNS): 19.6 µM; TGI (SNB-19 CNS): 49 µM; GI50 (HOP-62 NSCLC): 23.6 µM; TGI (HOP-62 NSCLC): 47.7 µM; GI50 (M19-MEL melanoma): 25.4 µM; TGI (M19-MEL melanoma): 75.3 µM; GI50 (HCT-116 colon): 18.9 µM; TGI (HCT-116 colon): 55.6 µM; GI50 (KM12 colon): 41.4 µM; TGI (KM12 colon): > 100 µM; GI50 (EKVX NSCLC): 28.9 µM; TGI (EKVX NSCLC): 78.2 µM; GI50 (NCI-H226 lung): 18.7 µM; TGI (NCI-H226 lung): 78.3 µM; GI50 (OVCAR-5 ovarian): 43.3 µM; TGI (OVCAR-5 ovarian): > 100 µM; GI50 (K-562 leukemia): 21 µM
